Reference: PubChem BioAssay (NCI)
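Each compound was tested at five concentrations against cells in 96-well plates for 48 hours. TGI denotes the concentration required for complete inhibition of growth.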

Columns and labels:
Assay in all cases: growth of human tumour cells (NCI), 48 h
[1] = test system: UACC-257 melanoma
[2] = test system: OVCAR-3 ovarian
[3] = test system: NCI-H522 lung
[4] = test system: OVCAR-8 ovarian
[5] = test system: MDA-MB-435
[6] = test system: MOLT-4 leukemia
[7] = test system: OVCAR-5 ovarian
[8] = test system: CAKI-1 renal
[9] = test system: TK-10 renal
[10] = test system: UO-31 renal
[11] = test system: MDA-N
[12] = test system: KM12 colon
[13] = test system: NCI-H226 lung
[14] = test system: MCF7 breast
[15] = test system: EKVX NSCLC
[16] = test system: PC-3 prostate
[17] = test system: HS 578T breast
[18] = test system: SN12C renal
[19] = test system: HT29 colon
[20] = test system: DLD-1 colon

| SMILES | TGI [1] | TGI [2] | TGI [3] | TGI [4] | TGI [5] | TGI [6] | TGI [7] | TGI [8] | TGI [9] | TGI [10] | TGI [11] | TGI [12] | TGI [13] | TGI [14] | TGI [15] | TGI [16] | TGI [17] | TGI [18] | TGI [19] | TGI [20] |
| --- | --- | --- | --- | --- | --- | --- | --- | --- | --- | --- | --- | --- | --- | --- | --- | --- | --- | --- | --- | --- |
| O=C(C=P(c1ccccc1)(c1ccccc1)c1ccccc1)c1ccc(-c2cccs2)cc1 | 6.35 µM | 8.52 µM | 12 µM | 17.8 µM | 10.9 µM | 4.7 µM | 17.7 µM | 19.6 µM | 11.3 µM | 14.4 µM | 11.7 µM | 15 µM | 8.4 µM | 11.7 µM | 7.09 µM | 15.7 µM | 49.4 µM | 17.6 µM | 13.7 µM | – |
| CC(=O)O[C@@H]1C[C@]2(C(=O)c3ccccc3)C(=O)C(=O)S[C@]12c1ccccc1 | > 100 µM | > 100 µM | > 100 µM | > 100 µM | > 100 µM | > 100 µM | > 100 µM | > 100 µM | > 100 µM | > 100 µM | > 100 µM | > 100 µM | > 100 µM | > 100 µM | > 100 µM | > 100 µM | > 100 µM | > 100 µM | > 100 µM | – |
| O=C(COc1ccc(Cl)c(Cl)c1)Nc1ccc[n+](Cc2ccc(S(=O)(=O)F)c(Cl)c2)c1 | > 100 µM | > 100 µM | > 100 µM | > 100 µM | > 100 µM | > 100 µM | > 100 µM | > 100 µM | > 100 µM | > 100 µM | – | > 100 µM | > 100 µM | > 100 µM | > 100 µM | > 100 µM | > 100 µM | > 100 µM | > 100 µM | – |
| CCOc1cc(C2CC(c3ccc(NS(=O)(=O)c4cc([N+](=O)[O-])ccc4C)cc3)=NN2S(=O)(=O)c2cc([N+](=O)[O-])ccc2C)ccc1O (configuration not stated) | > 100 µM | 71.5 µM | > 100 µM | > 100 µM | > 100 µM | > 100 µM | > 100 µM | > 100 µM | > 100 µM | > 100 µM | > 100 µM | > 100 µM | > 100 µM | > 100 µM | 82.2 µM | > 100 µM | > 100 µM | 81.3 µM | > 100 µM | – |
| COc1cc(C(=O)NC2CCc3cc(OC)c(OC)c(OC)c3-c3ccc(OC)c(=O)cc32)cc(OC)c1OC (configuration not stated) | 59.3 µM | 0.261 µM | 0.0544 µM | > 46.1 µM | 0.0961 µM | 43.2 µM | > 100 µM | 34 µM | > 91.6 µM | > 98 µM | 0.0961 µM | 0.801 µM | 3.31 µM | > 100 µM | > 100 µM | > 100 µM | > 21.1 µM | > 100 µM | 2.29 µM | > 100 µM |
| O=C(CSCC(=O)N/N=C/c1ccc2c(c1)OCO2)N/N=C/c1ccc2c(c1)OCO2 | > 100 µM | > 100 µM | > 100 µM | > 100 µM | > 100 µM | 56.8 µM | > 100 µM | > 100 µM | > 100 µM | > 100 µM | – | > 100 µM | > 100 µM | > 100 µM | > 100 µM | > 100 µM | > 100 µM | > 100 µM | > 100 µM | – |
| Cc1ccc(O)c(Cc2nc3ccccc3nc2-c2cccc(Cl)c2)c1 | > 100 µM | > 100 µM | 79 µM | > 100 µM | 54.9 µM | 51.4 µM | > 100 µM | > 100 µM | > 100 µM | > 100 µM | > 100 µM | > 100 µM | > 100 µM | > 100 µM | > 100 µM | > 100 µM | > 100 µM | > 100 µM | > 100 µM | – |
| COc1ccccc1/C=C/c1ccnc2ccccc12 | 29.5 µM | 26.7 µM | – | 30.2 µM | 19.9 µM | 28 µM | 32.4 µM | 40.3 µM | 30.9 µM | – | 26.1 µM | 25.3 µM | 29.5 µM | 17.5 µM | 23 µM | 27.3 µM | 38.5 µM | 37.3 µM | 25.4 µM | – |
| CCCCc1ccc(N=C(N)N)cc1 | > 100 µM | > 100 µM | > 100 µM | > 100 µM | > 100 µM | – | > 100 µM | > 100 µM | 63.9 µM | > 100 µM | 67 µM | 36.6 µM | 91.5 µM | 46.3 µM | > 100 µM | > 100 µM | > 100 µM | > 100 µM | 93.5 µM | – |
| C[C@H]1C[C@@H]2[C@H]([C@@H](O)C[C@@]3(C)[C@H]2CC[C@]3(O)C(=O)CO)[C@@]2(C)C=CC(=O)C=C12 | > 100 µM | > 100 µM | > 100 µM | > 100 µM | – | > 100 µM | > 100 µM | > 100 µM | > 100 µM | > 100 µM | – | > 100 µM | > 100 µM | – | – | – | – | > 100 µM | > 100 µM | > 100 µM |
| Cc1c2ccccc2c(C2C3C(=O)N(c4ccc(Br)cc4)C(=O)C3ON2C(C(N)=O)c2ccccc2)c2ccccc12 (configuration not stated) | 62.4 µM | 12.2 µM | 9 µM | 48 µM | 12.9 µM | > 100 µM | 23.2 µM | 21.3 µM | – | 34.6 µM | 35.1 µM | 22.1 µM | 30 µM | 24.4 µM | 31.7 µM | > 100 µM | – | 53.5 µM | 7.35 µM | – |
| COc1cc2c(c(OC)c1OC)-c1ccc(OC)c(=O)cc1C(NC(=O)COc1ccccc1)CC2 (configuration not stated) | > 100 µM | < 0.0355 µM | < 0.01 µM | 13.1 µM | < 0.01 µM | 53 µM | > 100 µM | 15.3 µM | > 93.7 µM | > 100 µM | < 0.01 µM | < 0.011 µM | 0.423 µM | > 49.4 µM | > 100 µM | > 100 µM | > 31.6 µM | > 100 µM | < 0.146 µM | > 100 µM |
| CCOC(=O)c1cnc(N(C)C)nc1SC(=N)N | > 100 µM | > 100 µM | > 100 µM | > 100 µM | > 100 µM | > 100 µM | > 100 µM | > 100 µM | > 100 µM | – | > 100 µM | > 100 µM | > 100 µM | > 100 µM | > 100 µM | > 100 µM | > 100 µM | > 100 µM | > 100 µM | – |
| CC(=O)Nc1ccc2c(c1)/C(=C\c1ccc([N+](C)(C)C)cc1)c1ccccc1-2 | 79.1 µM | > 100 µM | > 100 µM | > 100 µM | > 100 µM | > 100 µM | 80.4 µM | > 100 µM | > 100 µM | > 100 µM | > 100 µM | > 100 µM | 74.4 µM | > 100 µM | 78.6 µM | > 100 µM | 88.3 µM | > 100 µM | > 100 µM | – |
| C[C@@H]1C[C@H]2[C@@H]3CCC4=CC(=O)C=C[C@]4(C)[C@@]3(F)[C@@H](O)C[C@]2(C)[C@@]1(O)C(=O)CO | > 100 µM | > 100 µM | > 100 µM | > 100 µM | – | > 100 µM | > 100 µM | > 100 µM | > 100 µM | > 100 µM | – | > 100 µM | > 100 µM | – | > 100 µM | – | – | > 100 µM | > 100 µM | > 100 µM |
| CC(C)(C)[Si](OC1CCOC1=O)(c1ccccc1)c1ccccc1 (configuration not stated) | 50.4 µM | 27.1 µM | 38 µM | 70.9 µM | – | 59 µM | > 100 µM | – | 84.6 µM | > 100 µM | – | > 10 µM | – | – | > 100 µM | – | – | 33.5 µM | 32.3 µM | > 100 µM |
| CCCCN1C(=O)C2Cc3c([nH]c4ccccc34)C(c3cccc(O)c3)N2C1=O (configuration not stated) | 33.9 µM | 30.2 µM | 39.9 µM | 33.2 µM | 32.4 µM | 69.6 µM | 33 µM | 33.9 µM | 33.6 µM | 32.8 µM | 36.3 µM | 36.2 µM | 42.3 µM | 36.2 µM | 31.9 µM | 32.8 µM | 69.1 µM | 32.5 µM | 35.7 µM | – |
| CNC(=O)OCc1nc(SC)n(C)c1CO | > 100 µM | > 100 µM | > 100 µM | > 100 µM | – | > 100 µM | > 100 µM | > 100 µM | – | > 100 µM | – | > 100 µM | > 100 µM | > 100 µM | > 100 µM | – | – | > 100 µM | > 100 µM | > 100 µM |
| C[n+]1cccc(NC(=O)c2ccc(NC(=O)C34CCC(C(=O)Nc5ccc(C(=O)Nc6ccc[n+](C)c6)cc5)(CC3)CC4)cc2)c1 | > 100 µM | – | > 100 µM | > 100 µM | – | > 100 µM | > 100 µM | – | – | – | – | 22.7 µM | > 100 µM | – | > 100 µM | – | – | 75.1 µM | > 100 µM | > 100 µM |
| CC(=O)Oc1ccccc1 | > 100 µM | > 100 µM | > 100 µM | > 100 µM | – | > 100 µM | > 100 µM | > 100 µM | – | > 100 µM | – | > 100 µM | > 100 µM | – | > 100 µM | – | – | > 100 µM | > 100 µM | > 100 µM |
| Cc1ccc2c(c1)SC1=Nc3sc4cc(C)ccc4[n+]3CN12 | 12.8 µM | 6.97 µM | 11.2 µM | 18.8 µM | 20.2 µM | – | > 100 µM | – | 48 µM | > 100 µM | – | – | 75.2 µM | > 100 µM | 45.4 µM | > 100 µM | 35.5 µM | 56.2 µM | 28.4 µM | – |
